Measured values reported in PMC6267684, “Pharmacokinetic evaluation of the PNC disassembler metarrestin in wild-type and Pdx1-Cre;LSL-Kras^G12D/+;Tp53^R172H/+ (KPC) mice, a genetically engineered model of pancreatic cancer” (Cancer Chemotherapy and Pharmacology, 2018).

Key:
[1] = Freeze-thaw stability in mouse plasma; assay type: in vitro ADME; details: after three freeze-thaw cycles
Procedure: Bioanalytical method validation was performed in mouse plasma and mouse liver. The linear calibration range for metarrestin was 1.0–1000 ng/mL for plasma and 5.0–20,000 ng/g for liver homogenate. The lower limit of quantitation of the assay was 1.0 ng/mL in plasma and 5.0 ng/g in liver homogenate. The accuracy of calibration standards was between within 8% of the nominal values. Intra-assay variance and deviation from nominal values were calculated at low quality-control (LOQ, 1.0 ng/mL plasma and 5.0 ng/g liver), middle quality-control (MQC, 10.0 ng/mL and 500 ng/g), and high quality-control (HQC, 1000 ng/mL and 20,000 ng/g) levels for six replicates, each of the same analytical run (Suppl. Tables 1, 2). The variance of the QC samples (CV%, […]) ranged from 1.0 to 5.1% and the deviation was between 3 and 6% from nominal values. No endogenous interference was found at the retention time for metarrestin and internal standard as verified by testing control blank plasma and liver homogenate. Metarrestin was stable in mouse plasma after three freeze-thaw cycles.

KPC and PC3M cells = experiment: UPLC–MS/MS measurement of cellular metarrestin concentration; assay type: cell-based; details: 1 and 10 µM, within 40 min
cleaved caspase 3 = experiment: Cleaved caspase 3 immunohistochemistry in KPC tumors; assay type: in vivo, KPC mice; details: 25 mg/kg by gavage (PO) for 14 days
Excerpt: To arrive at markers driven by metarrestin exposure, we next subjected untreated and metarrestin-treated KPC tumors and matched normal pancreata to unbiased gene expression profiling using RNA-sEq. […] Thus, FOXA1 and FOXO6 may provide leads for future predictive biomarker development, assist in determination of the minimally efficacious dose, and add additional insight into the mechanism of action of metarrestin.
Suppl. Fig. 7. […] Nuclear cleaved caspase 3 expression levels in metarrestin-treated KPC tumors. Representative images of cleaved caspase 3 immunohistochemistry in tumors of KPC mice treated with vehicle (top) or 25mg/kg metarrestin for 14 days (bottom). Images 20×, inset 40×.

N=c1c2c(-c3ccccc3)c(-c3ccccc3)n(Cc3ccccc3)c2ncn1[C@H]1CC[C@H](O)CC1 [metarrestin, Trans-4-(7-benzyl-4-imino-5,6-diphenyl-4,7-dihydro-3H-pyrrolo[2,3-d]pyrimidin-3-yl) cyclohexanol]
stability in mouse plasma [1]: stable | cellular levels, % of media concentrations (KPC and PC3M cells): 40–100% | cell death in KPC tumors (nuclear cleaved caspase 3) (cleaved caspase 3): does not induce cell death
